# In patent US7902354B2, “Lapachone compounds and methods of use thereof” (ArQule, Inc., priority 2006, dated 2011):
# Counter-ions that a name gives are not always drawn.
row,Compound,melting point
1,O=C1C(=O)c2ccccc2C2=C1SCC1(CCN(C(=O)NS(=O)(=O)c3ccccc3)CC1)O2,155 to 165 °C
2,COc1ccc2c(c1)C(=O)C(=O)C1=C2OC2(CCN(C(=O)Oc3cccc(C(F)(F)F)c3)CC2)CS1,233 to 234 °C
3,CC(C)(C)OC(=O)N1CCC2(CC1)CSC1=C(O2)c2cc(N3CCOCC3)ccc2C(=O)C1=O,243 to 244 °C
4,O=C1C(=O)c2ccccc2C2=C1SCC1(CCN(C(=O)NS(=O)(=O)c3ccc(F)cc3)CC1)O2,173 to 180 °C
5,CC(C)(C)c1ccc(OC[C@H](O)CN2CCC3(CC2)CSC2=C(O3)c3cc(-c4ccccc4)ccc3C(=O)C2=O)cc1,94 to 97 °C
6,NC(=O)N1CCC2(CC1)CSC1=C(O2)c2ccccc2C(=O)C1=O,218 to 220 °C
7,O=C1C(=O)c2ccccc2C2=C1SCC1(CCN(C(=O)Cc3ccc(Cl)cc3)CC1)O2,120 to 125 °C
8,COc1ccc2c(c1)C(=O)C(=O)C1=C2OC2(CCN(C(=O)c3cccc(Cl)c3)CC2)CS1,130 °C (dec.)
9,COc1ccc2c(c1)C1=C(SCC3(CCN(C[C@H](O)Cc4ccccc4)CC3)O1)C(=O)C2=O,106 °C
10,O=C1C(=O)c2ccc(-c3ccccc3)cc2C2=C1SCC1(CCN(C[C@H](O)COc3ccc(Cl)cc3)CC1)O2,93 to 98 °C
11,CCC(O)CN1CCC2(CC1)CSC1=C(O2)c2ccccc2C(=O)C1=O (stereo not drawn),180 to 182 °C
12,CC(C)(C)OC(=O)NC1CCC2(CC1)CSC1=C(O2)c2ccccc2C(=O)C1=O (stereo not drawn),224 to 225 °C
13,O=C1C(=O)c2ccccc2C2=C1SCC1(CCN(C(=O)c3cn4c5c(cccc35)CCC4)CC1)O2,265 to 267 °C
14,CC(O)(Cc1ccccc1)CN1CCC2(CC1)CSC1=C(O2)c2ccccc2C(=O)C1=O (stereo not drawn),186 to 187 °C
15,CC(C)(C)c1ccc(OC[C@@H](O)CN2CCC3(CC2)CSC2=C(O3)c3cc(Br)ccc3C(=O)C2=O)cc1,150 to 152 °C
16,CCCC(C)N1CCC2(CC1)CSC1=C(O2)c2ccccc2C(=O)C1=O (stereo not drawn),109 to 111 °C
17,O=C1C(=O)c2ccccc2C2=C1SCC1(CCN(C[C@H](O)COc3ccc(C(=O)OCc4ccccc4)cc3)CC1)O2,83 to 84 °C
18,O=C1C(=O)c2ccccc2C2=C1SCC1(CCC(NC(=O)c3cccc(C(F)(F)F)c3)CC1)O2 (stereo not drawn) (as salt: hydrochloride),266 to 267 °C

row,Compound,melting point
1,O=C(NC1CCC2(CC1)CSC1=C(O2)c2ccccc2C(=O)C1=O)Oc1cccc(C(F)(F)F)c1 (stereo not drawn) (as salt: hydrochloride),198 to 199 °C
2,CC(C)(C)OC(=O)N1CCC(CC(=O)N2CCC3(CC2)CSC2=C(O3)c3ccccc3C(=O)C2=O)CC1,110 to 113 °C
3,CN(C)S(=O)(=O)N1CCC2(CC1)CSC1=C(O2)c2ccccc2C(=O)C1=O,215 to 218 °C
4,O=C1C(=O)c2ccc(-c3ccccc3)cc2C2=C1SCC1(CCN(C[C@@H](O)COc3ccc(Cl)cc3)CC1)O2,111 to 112 °C
5,CC(C)(C)c1ccc(OC[C@@H](O)CN2CCCC3(CSC4=C(O3)c3ccccc3C(=O)C4=O)C2)cc1 (stereo partly drawn),90 to 92 °C
6,COc1ccc2c(c1)C1=C(SCC3(CCN(C[C@H](O)COc4ccc(C(C)(C)C)cc4)CC3)O1)C(=O)C2=O,153 to 156 °C
7,CC(C)OCC(O)CN1CCC2(CC1)CSC1=C(O2)c2ccccc2C(=O)C1=O (stereo not drawn),97 to 99 °C
8,CC(C)(C)c1ccc(OC[C@@H](O)CN2CCC3(CC2)CSC2=C(O3)c3cc(N4CCOCC4)ccc3C(=O)C2=O)cc1,107 to 109 °C
9,COc1ccc2c(c1)C(=O)C(=O)C1=C2OC2(CCN(C[C@H](O)COc3ccc(Cl)cc3)CC2)CS1,189 to 191 °C
10,CC(C)(C)c1ccc(OC[C@@H](O)CN2CCC3(CC2)CSC2=C(O3)c3cc(-c4ccccc4)ccc3C(=O)C2=O)cc1,151 to 152 °C
11,COc1ccc2c(c1)C(=O)C(=O)C1=C2OC2(CCN(Cc3ccc(F)cc3)CC2)CS1,219 to 221 °C
12,O=C1C(=O)c2ccccc2C2=C1SCC1(CCCN(C[C@H](O)Cc3ccccc3)C1)O2 (stereo partly drawn),65 to 67 °C
13,O=C1C(=O)c2ccccc2C2=C1SCC1(CCN(CCc3ccccc3)CC1)O2,117 to 118 °C
14,O=C1C(=O)c2ccccc2C2=C1SCC1(CCCN(C(=O)Oc3cccc(C(F)(F)F)c3)C1)O2 (stereo not drawn),95 to 99 °C
15,COc1ccc2c(c1)C1=C(SCC3(CCN(C[C@H](O)COc4ccc(F)cc4)CC3)O1)C(=O)C2=O,80 to 81 °C
16,COc1ccc2c(c1)C(=O)C(=O)C1=C2OC2(CCN(C[C@H](O)Cc3ccccc3)CC2)CS1,145 to 147 °C
17,O=C1C(=O)c2ccccc2C2=C1SCC1(CCN(CC(O)Cc3ccc(Cl)cc3)CC1)O2 (stereo not drawn),195 to 196 °C

# Now from value to compound:
row,melting point,Compound
1,135 to 140 °C,O=C1C(=O)c2ccc(Br)cc2C2=C1SCC1(CCN(C(=O)c3cccc(Cl)c3)CC1)O2
2,183 to 187 °C,O=C1C(=O)c2ccccc2C2=C1SCC1(CCC(c3ccccc3)CC1)O2 (stereo not drawn)
3,240 to 242 °C,O=C1C(=O)c2ccc(-c3cccnc3)cc2C2=C1SCC1(CCN(C(=O)c3cccc(Cl)c3)CC1)O2
4,125 to 127 °C,COc1ccc2c(c1)C1=C(SCC3(CCN(C(=O)c4cccc(Cl)c4)CC3)O1)C(=O)C2=O
5,188 to 190 °C,O=C1C(=O)c2ccc(-c3ccccc3)cc2C2=C1SCC1(CCN(C(=O)Oc3cccc(C(F)(F)F)c3)CC1)O2
6,256 to 257 °C,Cl.NC1CCC2(CC1)CSC1=C(O2)c2ccccc2C(=O)C1=O (stereo not drawn)
7,195 to 197 °C,O=C1C(=O)c2ccccc2C2=C1SCC1(CCOCC1)O2
8,94 to 100 °C,Cl.O=C1C(=O)c2ccccc2C2=C1SCC1(CCN(C(=O)C3CCNCC3)CC1)O2
9,> 300 °C,Cl.Cl.O=C1C(=O)c2ccc(N3CCOCC3)cc2C2=C1SCC1(CCNCC1)O2
10,194 to 195 °C,O=C1C(=O)c2ccccc2C2=C1SCC1(CCCCC1)O2
11,240 to 241 °C,O=C1C(=O)c2ccc(-c3ccccc3)cc2C2=C1SCC1(CCN(C(=O)c3cccc(Cl)c3)CC1)O2
12,217 to 219 °C,CC(C)(C)OC(=O)N1CCC2(CC1)CSC1=C(O2)c2cc(-c3cccnc3)ccc2C(=O)C1=O
13,104 to 107 °C,O=C1C(=O)c2ccccc2C2=C1SCC1(CCN(Cc3ccc(F)cc3F)CC1)O2
14,197 to 198 °C,O=C1C(=O)c2ccc(-c3ccccc3)cc2C2=C1SCC1(CCN(Cc3ccc(F)cc3)CC1)O2
15,77 to 79 °C,O=C1C(=O)c2ccc(F)cc2C2=C1SCC1(CCN(C[C@@H](O)Cc3ccccc3)CC1)O2
16,190 to 240 °C,O=C1C(=O)c2ccc(-c3ccc(C(F)(F)F)cc3)cc2C2=C1SCC1(CCNCC1)O2
17,92 to 96 °C,O=C1C(=O)c2ccc(Cl)cc2C2=C1SCC1(CCN(C[C@@H](O)Cc3ccccc3)CC1)O2
18,82 to 83 °C,O=C1C(=O)c2ccc(Br)cc2C2=C1SCC1(CCN(C[C@@H](O)Cc3ccccc3)CC1)O2
19,173 to 175 °C,O=C1C(=O)c2ccc(-c3ccccc3)cc2C2=C1SCC1(CCN(C[C@H](O)COc3ccc(F)cc3)CC1)O2
20,238 to 240 °C,CC(C)(C)OC(=O)N1CCC2(CC1)CSC1=C(O2)c2cc(-c3ccc(C(F)(F)F)cc3)ccc2C(=O)C1=O
21,221 to 223 °C,O=C1C(=O)c2ccccc2C2=C1SCC1(CCSCC1)O2
22,213 to 215 °C,O=C1C(=O)c2ccc(-c3cccnc3)cc2C2=C1SCC1(CCNCC1)O2
